We go through 26 compounds from ChEMBL document CHEMBL4229486, “Design and synthesis of novel thiadiazole-thiazolone hybrids as potential inhibitors of the human mitotic kinesin Eg5” (Bioorg Med Chem Lett, 2018).

The target in experiment [1] is T1, Kinesin-like protein KIF11 (Homo sapiens) (UniProt P52732).
T1 sequence (whole entry): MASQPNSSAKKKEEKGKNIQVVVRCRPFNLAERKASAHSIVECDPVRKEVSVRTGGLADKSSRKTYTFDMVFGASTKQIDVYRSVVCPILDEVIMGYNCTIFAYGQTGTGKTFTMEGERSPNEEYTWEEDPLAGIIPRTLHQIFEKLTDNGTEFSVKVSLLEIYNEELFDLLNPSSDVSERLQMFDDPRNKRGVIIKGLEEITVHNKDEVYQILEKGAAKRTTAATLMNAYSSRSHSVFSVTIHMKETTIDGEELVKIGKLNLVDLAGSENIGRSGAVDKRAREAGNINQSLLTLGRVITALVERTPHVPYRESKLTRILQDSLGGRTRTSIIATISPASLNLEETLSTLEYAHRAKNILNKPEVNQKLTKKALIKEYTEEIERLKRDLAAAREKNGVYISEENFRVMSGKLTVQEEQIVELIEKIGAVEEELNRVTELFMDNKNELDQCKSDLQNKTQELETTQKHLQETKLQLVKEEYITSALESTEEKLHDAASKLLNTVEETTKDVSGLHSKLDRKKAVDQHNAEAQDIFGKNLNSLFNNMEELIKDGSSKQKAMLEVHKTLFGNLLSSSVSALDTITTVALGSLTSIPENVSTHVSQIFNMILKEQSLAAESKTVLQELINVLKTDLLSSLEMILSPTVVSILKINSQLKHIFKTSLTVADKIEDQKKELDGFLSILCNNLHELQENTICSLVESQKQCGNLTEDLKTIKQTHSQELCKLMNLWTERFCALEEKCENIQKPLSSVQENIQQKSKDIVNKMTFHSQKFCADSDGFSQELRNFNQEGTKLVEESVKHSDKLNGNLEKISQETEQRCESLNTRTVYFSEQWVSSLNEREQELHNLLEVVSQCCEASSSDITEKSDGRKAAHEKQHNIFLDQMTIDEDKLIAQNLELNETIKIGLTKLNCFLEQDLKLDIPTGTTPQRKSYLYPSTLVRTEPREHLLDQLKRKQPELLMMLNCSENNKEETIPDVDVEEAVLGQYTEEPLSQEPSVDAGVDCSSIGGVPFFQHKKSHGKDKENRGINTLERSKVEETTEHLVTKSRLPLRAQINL
The experiment in a line: Inhibition of basal EG5 ATPase activity (unknown origin) by pyruvate kinase/lactate dehydrogenase enzyme coupled photometric assay.

Experiment [2] concerns the target T2, Kinesin-like protein KIF11 (Homo sapiens, UniProt P52732).
T2 sequence (P52732 whole entry): T1 sequence (whole entry)
The experiment in a line: Inhibition of MT-stimulated EG5 ATPase activity (unknown origin) by pyruvate kinase/lactate dehydrogenase enzyme coupled photometric assay.

In experiment [3] the target is T2, Kinesin-like protein KIF11. In words: Inhibition EG5 (unknown origin).

Active and inactive are the calls of the source. The rule behind the calls is not given here.

As a reminder, the IC50 is the midpoint of a concentration-inhibition curve. On to `CC(=O)N1N=C(NC2=NC(=O)/C(=C/c3cccs3)S2)SC1(C)c1ccccc1` (configuration not stated), for which the inhibition entry in experiment [1] was “inactive”. For the same compound, the IC50 in experiment [2] (read-out: IC50) came to 133 µM.

Turning to `CC1=C(C(=O)OC(C)C)C(c2ccc(Cl)cc2)n2c(s/c(=C\c3ccc(OCC(=O)O)cc3)c2=O)=N1` (configuration not stated), in experiment [3], the IC50 amounted to 4.6 µM.

Regarding `CC(=O)N1N=C(NC2=NC(=O)/C(=C/c3ccc([N+](=O)[O-])cc3)S2)SC1(C)c1ccccc1` (configuration not stated), the inhibition result in experiment [1] was “inactive”. Besides, the half-inhibitory concentration (IC50) in experiment [2] (read-out: IC50) was found to be 20.2 µM.

For `CC(=O)C1=NN(c2cc(C)ccc2F)C[C@]1(CCCN(C)C)c1ccccc1`, inhibition in experiment [3] was half-maximal at 0.0002 µM (IC50).

Consider `CC(=O)N1N=C(NC2=NC(=O)/C(=C/c3ccc(N(C)C)cc3)S2)SC1(C)c1ccccc1` (configuration not stated), for which the inhibition entry in experiment [1] was “inactive”. Also, the IC50 in experiment [2] (read-out: IC50) fell in the range of 90 to 252 µM.

Regarding `CC(=O)N1N=C(NC2=NC(=O)/C(=C/c3cccc(Cl)c3)S2)SC1(C)c1ccccc1` (configuration not stated), the inhibition entry in experiment [1] is “inactive”. Also, the IC50 in experiment [2] (read-out: IC50) was 47.8 µM.

For `CC(=O)N1N=C(NC2=NC(=O)/C(=C/c3ccccc3F)S2)SC1(C)c1ccccc1` (configuration not stated), the inhibition entry in experiment [1] is “inactive”. Moreover, the IC50 in experiment [2] (read-out: IC50) was 70 to 133 µM.

For `CC(=O)NC1=NN(C(C)=O)C(C)(c2ccccc2)S1` (configuration not stated), the IC50 in experiment [2] (read-out: IC50) came out at 0.8 µM.

In the case of `CC(=O)N1N=C(NC2=NC(=O)/C(=C/c3ccc(Br)cc3)S2)SC1(C)c1ccccc1` (configuration not stated), in experiment [1], the inhibition entry is “inactive”. Moreover, the IC50 in experiment [2] (read-out: IC50) stood at 39.2 µM.

Regarding `CC(=O)N1N=C(NC2=NC(=O)/C(=C/c3ccc(C)cc3)S2)SC1(C)c1ccccc1` (configuration not stated), the inhibition result in experiment [1] is “inactive”. Also, the IC50 in experiment [2] (read-out: IC50) worked out at 63.3 µM.

With `COc1cccc(/C=C2\SC(NC3=NN(C(C)=O)C(C)(c4ccccc4)S3)=NC2=O)c1` (configuration not stated), the inhibition entry in experiment [1] is “inactive”. For the same compound, the IC50 in experiment [2] (read-out: IC50) amounted to 51 µM.

Consider `CC(=O)N1N=C(NC2=NC(=O)/C(=C/c3ccccc3[N+](=O)[O-])S2)SC1(C)c1ccccc1` (configuration not stated), for which, in experiment [2], the IC50 result is on record as “Active”.

As for `CC(=O)N1N=C(NC2=NC(=O)/C(=C/c3cccc([N+](=O)[O-])c3)S2)SC1(C)c1ccccc1` (configuration not stated), the inhibition result in experiment [1] is “inactive”. Further, the IC50 in experiment [2] (read-out: IC50) came to 27.5 µM.

Consider `COc1ccc(/C=C/C=C2\SC(NC3=NN(C(C)=O)C(C)(c4ccccc4)S3)=NC2=O)cc1` (configuration not stated), for which the inhibition result in experiment [1] is “inactive”. Further, the IC50 in experiment [2] (read-out: IC50) lay within 90 to 414 µM.

Regarding `CC(=O)N1N=C(NC2=NC(=O)/C(=C/c3ccccc3Cl)S2)SC1(C)c1ccccc1` (configuration not stated), in experiment [1], the inhibition entry was “inactive”. Moreover, the IC50 in experiment [2] (read-out: IC50) is 13.2 µM.

On to `CC(=O)N1N=C(NC2=NC(=O)/C(=C/c3ccccc3)S2)SC1(C)c1ccccc1` (configuration not stated), for which the inhibition result in experiment [1] was “inactive”. Moreover, in experiment [2] (read-out: IC50), the IC50 was found to be 62.1 µM.

`CC(=O)N1N=C(NC2=NC(=O)/C(=C/c3ccccn3)S2)SC1(C)c1ccccc1` (configuration not stated): the inhibition result in experiment [1] was “inactive”. For the same compound, the IC50 in experiment [2] (read-out: IC50) came out at 120 µM.

With `CC(=O)N1N=C(NC2=NC(=O)/C(=C/c3ccc(OCc4ccccc4)cc3)S2)SC1(C)c1ccccc1` (configuration not stated), the inhibition entry in experiment [1] is “inactive”. Moreover, the IC50 in experiment [2] (read-out: IC50) was 17.2 µM.

For the compound `COc1ccc(/C=C2\SC(NC3=NN(C(C)=O)C(C)(c4ccccc4)S3)=NC2=O)cc1` (configuration not stated), the inhibition entry in experiment [1] is “inactive”. Also, the IC50 in experiment [2] (read-out: IC50) was 42.7 µM.

Turning to `CC(=O)N1N=C(NC2=NC(=O)/C(=C/c3ccc(Cl)cc3)S2)SC1(C)c1ccccc1` (configuration not stated), in experiment [1], the inhibition entry is “inactive”. Also, in experiment [2] (read-out: IC50), the IC50 stood at 106 µM.

Take `CC(=O)N1N=C(NC2=NC(=O)/C(=C/C=C/c3ccccc3)S2)SC1(C)c1ccccc1` (configuration not stated): in experiment [1], the inhibition entry is “inactive”. Besides, the IC50 in experiment [2] (read-out: IC50) was in the range of 75 to 248 µM.

Consider `COc1cccc(/C=C2\SC(NC3=NN(C(C)=O)C(C)(c4ccccc4)S3)=NC2=O)c1OC` (configuration not stated), for which the inhibition entry in experiment [1] was “inactive”. Moreover, in experiment [2] (read-out: IC50), the IC50 is 71.9 µM.

Regarding `COc1ccc(/C=C2\SC(NC3=NN(C(C)=O)C(C)(c4ccccc4)S3)=NC2=O)cc1OC` (configuration not stated), in experiment [1], the inhibition entry was “inactive”. The IC50 in experiment [2] (read-out: IC50) was 60 to 112 µM.

For `CC(=O)N1N=C(NC2=NC(=O)/C(=C/c3ccco3)S2)SC1(C)c1ccccc1` (configuration not stated), the inhibition result in experiment [1] is “inactive”. Also, the IC50 in experiment [2] (read-out: IC50) lay in the range of 120 to 331 µM.

`CC(=O)N1N=C(NC2=NC(=O)/C(=C/C=C/c3ccc(N(C)C)cc3)S2)SC1(C)c1ccccc1` (configuration not stated): the inhibition result in experiment [1] is “inactive”. Also, the IC50 in experiment [2] (read-out: IC50) was found to be 129 µM.

In turn, `CCNCCS(=O)(=O)NC[C@@]1(c2ccccc2)SC(NC(=O)C(C)(C)C)=NN1C(=O)C(C)(C)C` [LITRONESIB] displayed an IC50 in experiment [3] of 0.007 µM.
